From US7452896B2, “Pyrimidine-sulfamides and their use as endothelian receptor antagonist” (Actelion Pharmaceuticals Ltd., priority 2002, dated 2008) come the findings set out here.

The target of test [1] is T1, human recombinant ETA receptors (Homo sapiens, UniProt P25101).
T1 construct: expressed in transfected cells; host or cells: CHO cells (microsomal membranes)
T1 sequence (P25101 21-427): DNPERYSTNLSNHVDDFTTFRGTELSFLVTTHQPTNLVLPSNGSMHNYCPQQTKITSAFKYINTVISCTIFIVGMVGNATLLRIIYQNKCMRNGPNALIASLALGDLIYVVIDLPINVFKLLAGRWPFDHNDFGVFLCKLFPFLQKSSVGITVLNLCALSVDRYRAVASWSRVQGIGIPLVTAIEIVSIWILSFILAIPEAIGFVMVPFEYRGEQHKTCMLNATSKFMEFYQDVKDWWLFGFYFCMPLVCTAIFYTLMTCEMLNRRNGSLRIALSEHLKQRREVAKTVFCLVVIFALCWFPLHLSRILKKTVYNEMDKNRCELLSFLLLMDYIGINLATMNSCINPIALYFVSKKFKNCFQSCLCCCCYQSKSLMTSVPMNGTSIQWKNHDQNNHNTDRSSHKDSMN
Kind of test: Inhibition of [125I]ET-1 binding to membranes of CHO cells expressing human recombinant ETA receptors. The procedure: (§1) 1) Inhibition of Endothelin Binding to Membranes from CHO Cells Carrying Human ET Receptors:
(§2) For competition binding studies, membranes of CHO cells expressing human recombinant ETA or ETB receptors were used. Microsomal membranes from recombinant CHO cells were prepared and the binding assay made as previously described (Breu V., et al, FEBS Lett 1993; 334:210).
(§3) The assay was performed in 200 uL 50 mM Tris/HCl buffer, pH 7.4, including 25 mM MnCl2, 1 mM EDTA and 0.5% (w/v) BSA in polypropylene microtiter plates. […] After 2 h, the membranes were filtered on filterplates containing GF/C filters (Unifilterplates from Canberra Packard S.A. Zürich, Switzerland). To each well, 50 uL of scintillation cocktail was added (MicroScint 20, Canberra Packard S.A. Zürich, Switzerland) and the filter plates counted in a microplate counter (TopCount, Canberra Packard S.A. Zürich, Switzerland).
(§4) All the test compounds were dissolved, diluted and added in DMSO.

The target of test [2] is T2, human recombinant ETB receptors (Homo sapiens, UniProt P24530).
T2 construct: expressed in transfected cells; host or cells: CHO cells (microsomal membranes)
T2 sequence (P24530 27-442): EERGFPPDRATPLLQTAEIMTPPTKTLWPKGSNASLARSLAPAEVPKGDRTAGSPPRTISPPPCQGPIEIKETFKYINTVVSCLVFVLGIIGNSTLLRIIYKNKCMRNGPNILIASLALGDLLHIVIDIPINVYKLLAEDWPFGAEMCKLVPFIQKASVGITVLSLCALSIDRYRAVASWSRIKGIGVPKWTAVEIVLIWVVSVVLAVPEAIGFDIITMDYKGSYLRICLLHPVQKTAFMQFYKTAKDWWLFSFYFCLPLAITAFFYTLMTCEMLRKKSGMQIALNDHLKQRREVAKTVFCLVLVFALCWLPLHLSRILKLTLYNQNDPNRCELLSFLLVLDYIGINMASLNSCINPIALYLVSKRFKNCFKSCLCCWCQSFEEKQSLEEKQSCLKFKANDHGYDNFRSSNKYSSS
Kind of test: Inhibition of [125I]ET-1 binding to membranes of CHO cells expressing human recombinant ETB receptors. How it is done:
as §1, §2, §3, §4

Test [3] has as its target T3, ETA receptors (rat aortic rings) (Rattus norvegicus, UniProt P26684).
T3 construct: The thoracic aorta or trachea were excised, dissected and cut in 3-5 mm rings; from tissue; host or cells: thoracic aorta rings of adult Wistar rats, endothelium removed
T3 sequence (P26684 21-426): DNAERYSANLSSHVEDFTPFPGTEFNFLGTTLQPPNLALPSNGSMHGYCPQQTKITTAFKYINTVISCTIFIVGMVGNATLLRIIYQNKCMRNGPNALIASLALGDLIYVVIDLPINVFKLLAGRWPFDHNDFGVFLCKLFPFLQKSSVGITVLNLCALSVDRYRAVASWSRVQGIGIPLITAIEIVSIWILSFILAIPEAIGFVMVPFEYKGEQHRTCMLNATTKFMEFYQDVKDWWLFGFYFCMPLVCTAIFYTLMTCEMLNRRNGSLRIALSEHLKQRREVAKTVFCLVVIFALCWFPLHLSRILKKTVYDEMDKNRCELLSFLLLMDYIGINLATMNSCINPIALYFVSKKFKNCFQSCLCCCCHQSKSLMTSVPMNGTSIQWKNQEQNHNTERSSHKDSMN
The experiment in a line: Inhibition of endothelin-1-induced contraction on isolated rat aortic rings. As to conditions: read-out: pA2 value Aorta (converted). The procedure:
(§5) 2) Inhibition of Endothelin-Induced Contractions on Isolated Rat Aortic Rings (ETA Receptors) and Rat Tracheal Rings (ETB Receptors):
(§6) The functional inhibitory potency of the endothelin antagonists was assessed by their inhibition of the contraction induced by endothelin-1 on rat aortic rings (ETA receptors) and of the contraction induced by sarafotoxin S6c on rat tracheal rings (ETB receptors). Adult Wistar rats were anesthetized and exsanguinated. The thoracic aorta or trachea were excised, dissected and cut in 3-5 mm rings. The endothelium/epithelium was removed by gentle rubbing of the intimal surface. Each ring was suspended in a 10 ml isolated organ bath filled with Krebs-Henseleit solution (in mM; NaCl 115, KCl 4.7, MgSO4 1.2, KH2PO4 1.5, NaHCO3 25, CaCl2 2.5, glucose 10) kept at 37° C. and gassed with 95% O2 and 5% CO2. The rings were connected to force transducers and isometric tension was recorded (EMKA Technologies SA, Paris, France). The rings were stretched to a resting tension of 3 g (aorta) or 2 g (trachea). […] The functional inhibitory potency of the test compound was assessed by calculating the concentration ratio, i.e. the shift to the right of the EC50 induced by different concentrations of test compound. […]

Test [4] has as its target T4, ETB receptors (rat tracheal rings) (Rattus norvegicus, UniProt P21451).
T4 construct: The thoracic aorta or trachea were excised, dissected and cut in 3-5 mm rings; from tissue; host or cells: tracheal rings of adult Wistar rats, epithelium removed
T4 sequence (P21451 27-442): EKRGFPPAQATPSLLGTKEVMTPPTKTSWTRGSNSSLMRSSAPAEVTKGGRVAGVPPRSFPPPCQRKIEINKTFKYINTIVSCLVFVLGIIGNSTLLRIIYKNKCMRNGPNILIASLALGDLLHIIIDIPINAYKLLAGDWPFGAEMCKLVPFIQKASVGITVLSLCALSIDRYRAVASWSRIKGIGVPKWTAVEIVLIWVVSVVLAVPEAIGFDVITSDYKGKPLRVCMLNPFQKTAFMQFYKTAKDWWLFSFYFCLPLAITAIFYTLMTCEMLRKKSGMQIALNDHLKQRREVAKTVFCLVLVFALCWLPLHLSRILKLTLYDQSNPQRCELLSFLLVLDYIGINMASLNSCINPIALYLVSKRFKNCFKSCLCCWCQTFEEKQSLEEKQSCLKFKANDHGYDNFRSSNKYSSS
Kind of test: Inhibition of sarafotoxin S6c-induced contraction on isolated rat tracheal rings. As to conditions: contraction induced by sarafotoxin S6c, read-out: pA2 value Trachea (converted). How it is done: as §5, §6

The term IC50 denotes the concentration needed to halve the response being measured. In the case of `COCCNS(=O)(=O)Nc1ncnc(OCCOc2ncc(Br)cn2)c1Oc1cc(OC)ccc1Cl` [Example 1, 2-methoxy-ethanesulfamic acid [6-[2-(5-bromo-pyrimidin-2-yloxy)-ethoxy]-5-(2-chloro-5-methoxy-phenoxy)-pyrimidin-4-yl]-amide], the IC50 in test [1] is 0.28 nM; in test [2], 174 nM. The Kb is 126 nM in test [3] and 5130 nM in test [4].

Take `COCCNS(=O)(=O)Nc1ncnc(OCCOc2ncc(SC)cn2)c1-c1ccc(Br)cc1` [Example 3, 2-Methoxy-ethanesulfamic acid {5-(4-bromophenyl)-6-[2-(5-methylsulfanyl-pyrimidin-2-yloxy)-ethoxy]-pyrimidin-4-yl}-amide]: the figures for the IC50 in test [1] and in test [2] were 0.2 nM and 120 nM, respectively.

Turning to `COCCNS(=O)(=O)Nc1ncnc(OCCOc2ncc(OC)cn2)c1-c1ccc(Br)cc1` [Example 4, 2-Methoxy-ethanesulfamic acid {5-(4-bromophenyl)-6-[2-(5-methoxypyrimidin-2-yloxy)-ethoxy]-pyrimidin-4-yl}-amide], the values for the half-maximal inhibitory concentration (IC50) in test [1] and in test [2] were 1.27 nM and 560 nM, respectively.

For the molecule `COCCNS(=O)(=O)Nc1ncnc(OCCOc2ncc(Br)cn2)c1-c1ccc(Br)cc1` [Example 2, 2-methoxy-ethanesulfamic acid {5-(4-bromophenyl)-6-[2-(5-bromopyrimidin-2-yloxy)-ethoxy]-pyrimidin-4-yl}-amide], the figures for the IC50 in test [1] and in test [2] were 0.22 nM and 222 nM, respectively. Besides, the Kb in test [3] was 3.31 nM; in test [4], > 10000 nM.
